Where two headings read alike, the source gives them in different places.
What was measured:
[1] = Once daily intravenous 10 mg/kg P5P for four days, urinary excretion and renal clearance (Example Four); type: in vivo, human; conditions: 4 days, mean; for CL renal: human, urine and plasma, iv, 10 mg/kg, read-out: CLR, renal clearance (converted)
Procedure: (§1) Data sets analyzed—Six (6) healthy, adult non-smokers were administered intravenously a single daily dose of 10 mg/kb of P5P for four consecutive days and completed the study. In accordance with the study protocol, data from all subjects who completed the study were used for pharmacokinetic and statistical analysis.
(§2) Analytical Methods—Plasma and urine samples were used for analysis. P5P, PAL, and PA levels were determined by HPLC/FLD. The quantitation level was 5 ng/mL for plasma and 100 ng/mL for urine. The sample analysis calibration curve range was 5 ng/mL to 5000 ng/mL for plasma and 100 ng/mL to 50,000 ng/mL for urine.
Total and Renal Clearance—Total body clearance was estimated for P5P and was calculated as Dose/AUC0-inf.

clinical = test: clinical; parameters: species or system human; conditions: in vivo; for AUC: AUC0-τ; for half-life: T1/2 el
Procedure: as §1, §2
When the difference exceeded this time limit, the actual sampling times (rounded off to three decimal digits) were used to calculate pharmacokinetic parameters except for pre-dose samples, which were always reported as zero (0.000), regardless of time deviations. Scheduled sampling times are presented in concentration tables and graphs of the statistical section of the report.
Pharmacokinetic analyses (non-compartmental and compartmental) were performed at SFBC Anapharm. Pharmacokinetic parameters were calculated using either Bioequiv (release 3.40) or WinNonLin™ (release 4.0.1). Bioequiv is proprietary software developed and tested for bioequivalence studies at SFBC Anapharm. This software performs non-compartmental analyses of pharmacokinetic parameters and statistical analyses (via SAS release 6.12) according to FDA, HPFB and BMEA guidance.
The mean, standard deviation (SD), coefficient of variation (CV (%)) and range (min. and max.) were calculated for plasma concentrations of P5P (both baseline corrected and uncorrected), PAL and PA for each sampling time and treatment.
For the non-compartmental pharmacokinetic analyses the mean. SD, CV (%). range (min. and max.), median and interquartile range were calculated for the AUC0-t, (ng·h/mL), AUC0-t (ng·h/mL), AUC0-inf (ng·h/mL), Cmax (ng/mL), Cmin (ng/mL), Cavg (ng/mL), Fl(%), Ae0-t (ng), AUC^t/inf (%), Tmax (h), T1/2 el (h), Kel (h^−1), TLIN (h), LQCT (h). CLT (L/h), CLR (L/h). Vβ (L), MRT (h) and Accumulation ratio. The calculation of these pharmacokinetic parameters is explained below.
Cmax the maximum observed concentration, and Tmax, the time to reach that peak concentration, were determined for each subject and for each analyte. For Day 4 data, Cmin the minimum observed concentration was determined for each subject and for each analyte and Cavg was calculated as AUC0-τ/τ.
Percentage of Fluctuation—For Day 4 data, the peak-through percentage of fluctuation over one dosing interval (Fl(%)) was calculated as: 100*([Cmax−Cmin]/Cavg)
Half-Life and Elimination Rate Constant—To calculate the elimination rate constant (Kel), regression analyses were performed on the natural log(Ln) of plasma concentration values (y) versus time (x). Calculations were made between a time point where log-linear elimination phase begins (TLIN) and the time at which the last concentration above the limit of quantification (LQCT) occurred. The Kel was taken as the slope multiplied by (−1) and the apparent half-life (T1/2 el) as (In 2)/Kel.
TLIN and LQCT—TLIN, the time point where In-linear Kel calculation begins, and LQCT, the sampling time of the last quantifiable concentration used to estimate the Kel were determined by the scientist (according to SFBC Anapharm's standard operating procedures) for each subject and for each treatment. At least 4 non-zero observations during the terminal elimination phase were used to calculate the Kel. A minimum of 3 observations were used if less than 4 observations were available.
Areas Under the Concentration-Time Curves—AUC0-t was calculated using the linear trapezoidal rule from time 0.000 h until the last non-zero concentration.
AUC0-τ was calculated using the linear trapezoidal rule from time 0.000 h until 24.0 h.
The AUC0-inf was calculated as: […]

[2] = Cumulative urinary excretion after single intravenous dose of P5P (Example Three); type: in vivo, human; conditions: for Cumulative Urinary Excretion as Percent of the Dose: Percent (CV %)
Procedure: P5P, pyridoxal, and 4-pyridoxic acid were evaluated in both plasma and urine over a 24 hour interval following either intravenous or oral dosing. The results are set out below in Tables 2 and 3. The urinary excretion of the unchanged P5P is negligible. Less than 0.5% of the administered dose was found as P5P in the urine (Table 10). Similarly, very little of the dose was excreted in urine as PAL, between approximately 2 to 3% of the total dose (Table 10). PA represented the largest amounts found in urine. Over a 24-hour interval, between 30% and 52% of the given dose was excreted in urine as 4-pyridoxic acid.

[3] = 10 mg/kg iv once daily, Day 1, P5P uncorrected
[4] = 10 mg/kg iv once daily, Day 4, P5P uncorrected
[5] = Group 1, dose of P5P 1 mg/1 kg, single iv
[6] = Group 3, P5P 10 mg/kg single iv
[7] = Group 4, dose of P5P, single iv
[8] = P5P 10 mg/kg iv once daily, Day 1, PA
[9] = P5P 10 mg/kg iv once daily, Day 4, PA
[10] = P5P 10 mg/kg iv once daily, Day 1, PAL
[11] = P5P 10 mg/kg iv once daily, Day 4, PAL

Tmax (clinical; human, iv, 10 mg/kg)	AUC(0-inf) (clinical; human, iv, 10 mg/kg, AUC0-inf)	AUC(0-t) (clinical; human, iv, 10 mg/kg, AUC0-t)	AUC (clinical; human, iv, 10 mg/kg)	Cmax (clinical; human, iv, 10 mg/kg, Cmax)	MRT (clinical; human, iv, 10 mg/kg)	half-life (clinical; human, iv, 10 mg/kg)	Tmax (clinical; human, iv, 10 mg/kg, Tmax)	Cumulative Urinary Excretion as Percent of the Dose [2, 5]	Cumulative Urinary Excretion as Percent of the Dose ([2]; Group 2, P5P 5 mg/kg single iv)	Cumulative Urinary Excretion as Percent of the Dose [2, 6]	Cumulative Urinary Excretion as Percent of the Dose [2, 7]	Ratio of LS Means, AUC0-inf (clinical; human)	Ratio of LS Means, AUC0-t (clinical; human)	Ratio of LS Means, Cmax (clinical; human)	AUC(0-inf) (clinical; human, iv, 10 mg/kg)	AUC(0-t) (clinical; human, iv, 10 mg/kg)	Cmax (clinical; human, iv, 10 mg/kg)	Structure (SMILES)	ANOVA, difference between treatment days (clinical)	also measured
0.081 h	283000 ng·h/mL	278000 ng·h/mL	303000 ng·h/mL	191000 ng/mL	3.4 h	5.14 h	0.089 h	0.06 (161) Percent	0.08 (96) Percent	0.02 (167) Percent	0.26 (73) Percent							Cc1ncc(COP(=O)(O)O)c(C=O)c1O [P5P, Pyridoxal 5′-phosphate, reference compound]	did not detect any statistically significant difference	Ae0-t, total amount excreted in urine [1, 3]: 848625 ng; Ae0-t, total amount excreted in urine [1, 4]: 558650 ng; CL renal [1, 3]: 0.0465 mL/min; CL renal [1, 4]: 0.029 mL/min; Tmax (clinical; human, Tmax): 0.067 h; AUC0-τ (clinical; human, iv, 10 mg/kg): 303393.72 ng·h/mL; clearance (clinical; human, iv, 10 mg/kg, CLτ (text: CLT, total body clearance)): 42.5 mL/min; part of the administered dose found in urine ([2]; single iv P5P 1-20 mg/kg, 24-hour interval): Less than 0.5%
0.528 h	21200 ng·h/mL	20700 ng·h/mL	21200 ng·h/mL	4360 ng/mL	3.85 h	2.3 h	0.611 h	52.25 (28) Percent	47.18 (32) Percent	29.78 (32) Percent	40.55 (54) Percent	99.47%	99.75%	97.17%	21097.95 ng·h/mL	20704.80 ng·h/mL	4238 ng/mL	Cc1ncc(CO)c(C(=O)O)c1O [PA, 4-pyridoxic acid]	did not detect any statistically significant difference	Ae0-t, total amount excreted in urine [1, 8]: 172950596 ng; Ae0-t, total amount excreted in urine [1, 9]: 225885311 ng; CL renal [1, 8]: 144 mL/min; CL renal [1, 9]: 179 mL/min
0.691 h	22400 ng·h/mL	22300 ng·h/mL	29700 ng·h/mL	7630 ng/mL	4.06 h	3.4 h	0.525 h	1.93 (101) Percent	3.00 (37) Percent	2.73 (20) Percent	2.46 (33) Percent	133.70%	132.83%	101.45%	30077.45 ng·h/mL	29682.94 ng·h/mL	6902 ng/mL	Cc1ncc(CO)c(C=O)c1O [PAL, pyridoxal]		Ae0-t, total amount excreted in urine [1, 10]: 18583712 ng; Ae0-t, total amount excreted in urine [1, 11]: 21011635 ng; CL renal [1, 10]: 14.3 mL/min; CL renal [1, 11]: 12.1 mL/min; ANOVA, difference between treatment days (clinical; human): statistically significant difference between treatment days was detected using ANOVA for In-transformed AUC0-t, and AUC0-inf but not for Cmax

From patent US20090018106A1, “INTRAVENOUS FORMULATIONS OF PYRIDOXAL 5'- PHOSPHATE AND METHOD OF PREPARATION” (Medicure International Inc., priority 2005, published 2009)
